Test results as given in US8735391B2, “Synthesis of functionalized octahydro-isoquinolin-1-one-8-carboxamides, octahydro-isoquinolin-1-one-8-carboxylic esters and analogs, and therapeutic methods” (University of Kansas, priority 2008, dated 2014).
Read-outs that look alike come from different tables or passages of the source.

Experiments:
KOR [1] = target: T1, KOR (Homo sapiens, UniProt P41145); experiment: Opioid secondary binding, KOR (Tables 4, 5, 8, 9)
MOR = MOR (Homo sapiens, UniProt P35372); experiment: Opioid secondary binding, MOR (Tables 4, 5, 8)
Chain of MOR (P35372 whole entry): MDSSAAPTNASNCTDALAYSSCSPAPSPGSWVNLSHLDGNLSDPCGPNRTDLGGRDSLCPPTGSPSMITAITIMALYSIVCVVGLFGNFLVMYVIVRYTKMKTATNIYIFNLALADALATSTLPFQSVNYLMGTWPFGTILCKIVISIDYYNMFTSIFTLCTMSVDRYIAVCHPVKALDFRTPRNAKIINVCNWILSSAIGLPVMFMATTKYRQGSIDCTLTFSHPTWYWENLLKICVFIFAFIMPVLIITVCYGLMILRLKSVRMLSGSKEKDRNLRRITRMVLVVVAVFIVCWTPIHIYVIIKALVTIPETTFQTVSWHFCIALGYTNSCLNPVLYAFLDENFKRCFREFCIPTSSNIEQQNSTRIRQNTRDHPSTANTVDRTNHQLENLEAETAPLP

KOR [2] = target: T1, KOR; experiment: [35S]GTPγS binding functional agonist assay on membranes of CHO cells expressing hKOR (reference agonist U69593); assay type: biochemical; parameters: expressed in transfected cells; host or cells: CHO cells, stably transfected; crude membrane fractions; conditions: for Emax: read-out: Emax values relative to U69593; for KOR agonist (average percent efficacy relative to cognate agonist): test compound at 10 micromolar, N=4, reference agonist = 100%, CHO-cell line expressing hKOR
Method: The compounds prepared herein were tested for bioactivity with opioid receptors. Agonist assays: Data represent the percent efficacy (relative to cognate agonist) of the test compound at 10 micromolar. The response to a saturating concentration of a reference antagonist or to vehicle (usually none or negligible) is set to 0%. […] The response inhibition elicited by a saturating concentration of reference antagonist is set to 100%; the response inhibition (usually none or negligible) elicited by vehicle is set to 0%. The following tables provide data related to the bioactivity for opioid receptors of the compounds described herein.
Table 6 provides data that represent the average percent efficacy (N=4; relative to cognate agonist) of the test compound at 10 micromolar concentration. The response to a saturating concentration of cognate/reference agonist is set to 100%; the response to a saturating concentration of a reference antagonist or to vehicle (usually none or negligible) is set to 0%. All functional assays are performed on stably transfected CHO-cell lines expressing hKOR, hMOR or hDOR.
(§1) Serial dilutions of the test and reference compounds are made in binding buffer at 2× assay concentration (final assay concentrations ranging from 0.1 nM to 10 μM). Crude membrane fractions (1.8 to 3.5 cm2/well) (prepared from 10-cm plates by harvesting PBS-rinsed monolayers, resuspending and lysing in chilled, hypotonic 50 mM Tris-HCl, pH 7.4, centrifuging at 20,000×g, decanting the supernatant and storing at −80 degrees centigrade; typically, one 10-cm plate provides sufficient material for 24 wells) are resuspended in 1.2 ml of assay buffer containing 20 μM GDP, wheat germ agglutinin (WGA)-coated scintillation proximity beads (2.4 mg), and [35S]GTPγS (300 pM final). The suspension is then added (50 μl/well) to 50 μl of the 2× test or reference compounds (each concentration assayed in triplicate) in flexible transparent PET 96-well plates. The reaction plate is sealed and incubated for 90 min at room temperature, then centrifuged for 5 min at 216×g, and finally loaded into a Wallac MicroBeta TriLux counter. Non-specific [35S]GTPγS binding is assessed at the maximum concentration of reference agonist in the presence of 10 μM antagonist. The background signal is measured at 10 μM reference agonist in the presence of 10 μM unlabeled GTPγS. Raw data (dpm) representing total [35S]GTPγS binding (i.e., specific+non-specific binding) are calculated as a percentage of the maximum response by the reference agonist (in this case U69593).
as §1, with “GTPγS.” for “GTPγS. Raw data (dpm) representing total [35S]GTPγS binding (i.e., specific+non-specific binding) are calculated as a percentage of the maximum response by the reference agonist (in this case U69593).”

DOR = DOR (Homo sapiens, UniProt P41143); experiment: Opioid secondary binding, DOR (Table 4); conditions: Opioid secondary binding activity for Formula 10 analogs
Chain of DOR (P41143 whole entry): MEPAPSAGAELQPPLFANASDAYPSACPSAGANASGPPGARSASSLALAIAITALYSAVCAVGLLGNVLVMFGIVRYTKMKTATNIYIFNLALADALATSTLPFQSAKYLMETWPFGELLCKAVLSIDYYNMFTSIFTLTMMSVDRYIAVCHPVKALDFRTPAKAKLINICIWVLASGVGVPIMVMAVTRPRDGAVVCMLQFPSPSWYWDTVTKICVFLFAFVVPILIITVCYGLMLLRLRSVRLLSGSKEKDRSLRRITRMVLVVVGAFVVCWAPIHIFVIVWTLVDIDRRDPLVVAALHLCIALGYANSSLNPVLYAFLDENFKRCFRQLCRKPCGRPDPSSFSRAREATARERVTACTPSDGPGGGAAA

[3] = Opioid secondary binding activity for Formula 10 analogs, read-out: KOR, Ki
[4] = Opioid secondary binding activity for Formula 10 analogs, read-out: MOR, Ki

T1 sequence (P41145 whole entry): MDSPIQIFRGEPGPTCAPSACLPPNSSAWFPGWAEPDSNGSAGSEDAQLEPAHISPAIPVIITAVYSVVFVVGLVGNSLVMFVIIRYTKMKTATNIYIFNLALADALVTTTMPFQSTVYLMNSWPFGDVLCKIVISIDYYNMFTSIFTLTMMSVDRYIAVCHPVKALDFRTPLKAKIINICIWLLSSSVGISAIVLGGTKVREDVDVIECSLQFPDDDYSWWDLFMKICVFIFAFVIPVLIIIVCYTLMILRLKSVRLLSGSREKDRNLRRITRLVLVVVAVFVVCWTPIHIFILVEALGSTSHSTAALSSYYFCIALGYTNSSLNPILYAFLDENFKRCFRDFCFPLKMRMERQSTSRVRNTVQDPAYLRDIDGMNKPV

| Structure (SMILES) | Ki (KOR [1]; [3]) [µM] | Ki (MOR; [4]) [µM] | Emax (KOR [2]) [%] | Emax values relative to U69593 (KOR [2]; [35S]GTPγS data-fit top relative to reference agonist U69593) [%] | KOR agonist (average percent efficacy relative to cognate agonist) (KOR [2]) [%] | Ki (DOR) [µM] | Ki (KOR [1]) [µM] | Ki (MOR) [µM] |
| --- | --- | --- | --- | --- | --- | --- | --- | --- |
| O=C(Nc1ccc(Br)c(C(F)(F)F)c1)[C@H]1CC=C[C@H]2CCN(Cc3ccccc3)C(=O)[C@@H]12 [11869*] | 0.0165 | 0.648 | 68 | – | – | – | – | – |
| Cc1cc(NC(=O)[C@@H]2CC=C[C@@H]3CCN(Cc4ccccc4)C(=O)[C@@H]32)ccc1Cl (racemic) [compound 11872] | 0.086 | 2.18 | – | 123 | – | – | – | – |
| CCCCN1CC[C@H]2C=CC[C@@H](C(=O)Nc3ccc(Cl)c(C(F)(F)F)c3)[C@H]2C1=O (racemic) [compound 8956] | 0.19 | 2.22 | – | – | 118.7 | – | – | – |
| COc1ccc(NC(=O)[C@@H]2CC=C[C@@H]3CCN(Cc4ccc(Cl)c(Cl)c4)C(=O)[C@@H]32)cc1 (racemic) [compound 8947] | 2.56 | 3.49 | – | – | 17.3 | – | – | – |
| O=C(NCCc1ccccc1)[C@@H]1CC=C[C@@H]2CCN(Cc3ccccc3)C(=O)[C@@H]21 (racemic) [compound 8916] | 0.561 | 4.6 | – | – | 110.6 | – | – | – |
| O=C(Nc1ccccc1)[C@@H]1CC=C[C@@H]2CCN(Cc3ccccc3)C(=O)[C@@H]21 (racemic) [compound 8937, 2-Benzyl-N-phenyl-1-oxo-1,2,3,4,4a,7,8,8a-octahydroisoquinoline-8-carboxamide] | 0.146 | 2.57 | – | – | 136.6 | 0.85 | – | – |
| O=C(Nc1ccc(Cl)c(C(F)(F)F)c1)[C@H]1CC=C[C@H]2CCN(Cc3ccccc3)C(=O)[C@@H]12 [compound 11790] | – | – | 78 | – | – | – | 0.0032 | 0.208 |
| O=C(NCCc1ccccc1)[C@@H]1CC=C[C@@H]2CCN(Cc3ccc(Cl)c(Cl)c3)C(=O)[C@@H]21 (racemic) [compound 5084] | 4.8 | 5.19 | – | – | – | – | – | – |
| O=C(Nc1ccccc1)[C@H]1CC=C[C@H]2CCN(Cc3ccccc3)C(=O)[C@@H]12 [compound 11794] | 0.137 | 1.66 | – | – | – | – | – | – |
| O=C(Nc1ccc(Cl)c(C(F)(F)F)c1)[C@@H]1CC=C[C@@H]2CCN(Cc3ccccc3)C(=O)[C@@H]21 [compound 11789] | – | – | – | – | – | – | 0.132 | 3.48 |
| O=C(Nc1ccc(Cl)c(C(F)(F)F)c1)C1CCCC2CCN(Cc3ccccc3)C(=O)C21 (racemic) [compound 11478] | 0.051 | 1.75 | – | – | – | – | – | – |
| O=C(NCc1ccc(Cl)c(C(F)(F)F)c1)[C@@H]1CC=C[C@@H]2CCN(Cc3ccccc3)C(=O)[C@@H]21 (racemic) [compound 11868] | 0.455 | 2.17 | – | – | – | – | – | – |
| O=C(Nc1ccccc1)[C@@H]1CC=C[C@@H]2CCN(Cc3ccc(Cl)c(Cl)c3)C(=O)[C@@H]21 (racemic) [compound 8941] | 0.259 | 2.7 | – | – | 79 | 1.11 | – | – |
| COc1ccc(CN2CC[C@H]3C=CC[C@@H](C(=O)N4CCN(c5ccccc5)CC4)[C@H]3C2=O)cc1OC (racemic) [compound 8915] | 8.9 | 5.54 | – | – | 6.7 | 4.69 | – | – |
| COc1ccc(CNC(=O)[C@@H]2CC=C[C@@H]3CCN(Cc4ccc(Cl)c(Cl)c4)C(=O)[C@@H]32)cc1 (racemic) [compound 8928] | 0.964 | 7.4 | – | – | 17.7 | – | – | – |
| COc1ccc(CN2CC[C@H]3C=CC[C@@H](C(=O)Nc4ccc(Cl)cc4Cl)[C@H]3C2=O)cc1OC (racemic) [compound 8952] | – | 5.66 | – | – | −2.6 | – | – | – |
| O=C(Nc1ccc(Br)c(C(F)(F)F)c1)[C@@H]1CC=C[C@@H]2CCN(CCc3ccccc3)C(=O)[C@@H]21 (racemic) [compound 11875] | 2.28 | 1.18 | – | – | – | – | – | – |
| COc1ccc(CN2CC[C@H]3C=CC[C@@H](C(=O)Nc4ccccc4)[C@H]3C2=O)cc1OC (racemic) [compound 8942] | 3.06 | 3.52 | – | – | 5.4 | 4.61 | – | – |
| O=C1[C@H]2[C@H](C=CC[C@H]2C(=O)N2CCN(c3ccccc3)CC2)CCN1Cc1ccccc1 (racemic) [compound 8912] | 4.8 | 2.4 | – | – | 8 | 3.85 | – | – |
| O=C(Nc1ccc(Cl)c(C(F)(F)F)c1)[C@@H]1CC=C[C@H]2CCN(Cc3ccccc3)C(=O)[C@H]21 [compound 11795] | – | 5.42 | – | – | – | – | 0.158 | – |
| O=C(NCc1ccc(Cl)c(C(F)(F)F)c1)[C@@H]1CC=C[C@@H]2CCN(CCc3ccccc3)C(=O)[C@@H]21 (racemic) [compound 11874] | 0.319 | 1.24 | – | – | – | – | – | – |
| O=C(Nc1ccc(Cl)c(C(F)(F)F)c1)[C@@H]1CC=C[C@@H]2CCN(Cc3ccccc3)C(=O)[C@@H]21 (racemic) [compound 8620] | – | 3.55 | 67 | – | – | – | 0.0053 | – |
